What follows are substances tested on Seeds of Lettuce R. (Super-Jericho) (assay: Filter paper bioassay with lettuce seeds: germination and early plant development, Minimal Effective Concentration (MEC)). Settings: lettuce seeds on filter paper, 0 to 1 mmol/l, visually assessed after 6 days.
Format: in vivo
Text: Materials: Seeds of Lettuce R. (Super-Jericho, non-sterilized) were obtained from Ben Shahar Moshe Ltd., 99% purity. The test compounds listed in the Table 2 below were synthetized de novo or purchased from different vendors.
Filter Paper Bioassays with Lettuce seeds: The protocol is following Bertin et al. 2009 and Movellan et al. 2014 with specified modifications as described below.
Seeds were placed on Whatman no. 1 filter paper (Whatman, Middlesex, U.K.) in Petri dishes (10 seeds per plate) with 2.0 ml of aqueous solution of a test material in concentration ranged from 0 (control) to 1 mmol/l were placed in a tray tilted at 45[…]. The trays were kept in dark for 48 hours and then transferred to the growth chamber with 6/18 dark/light cycle for 4 days. Each experiment was performed at least with two repeats.
The development of plants' radicle and shoots were visually assessed 6 days after the beginning of the test to determine Minimal Effective Concentration (MEC) of a test material. In the context of the invention, MEC is defined as the lowest concentration level of a test material that caused deviation (absence of germination or malformation of radicle or shoots) from the plant's development in the Control group.

Substance | Score (activity score of Minimal Effective Concentration, MEC)
2,2-difluoro-2-[4-(trifluoromethyl)pyrimidin-2-yl]acetic acid [compound 6652] | Moderate (0.1 mM)
2,2-difluoro-2-{2-[3-fluoro-5-(trifluoromethyl)pyridin-2-yl]-1,3-thiazol-4-yl}acetic acid [compound 5736] | Moderate (0.1 mM)
2,2-difluoro-2-{6-[2-(trifluoromethyl)-1,3-thiazol-4-yl]pyridin-2-yl}acetic acid [compound 6658] | Moderate (0.1 mM)
2-(1,2,3-thiadiazol-4-yl)acetic acid [compound 5748] | Moderate (0.1 mM)
2-(1H-1,2,4-triazol-5-yl)ethan-1-amine [compound 592] | weak
2-(2,5-dichloro-1,3-thiazol-4-yl)ethan-1-amine [compound 5691] | Strong (0.01 mM)
2-(2,5-dichlorothiophen-3-yl)-2-oxoacetic acid [compound 5631] | Weak (Higher than 0.1 mM)
2-(2,6-dibromopyridin-4-yl)ethan-1-amine [compound 6612] | Moderate (0.1 mM)
2-(2,6-dichloropyridin-4-yl)-2,2-difluoroacetic acid [compound 6628] | Weak (Higher than 0.1 mM)
2-(2-bromopyridin-4-yl)ethan-1-amine [compound 688] | Weak (Higher than 0.1 mM)
2-(2-chloro-1,3-benzothiazol-4-yl)-2,2-difluoroacetic acid [compound 5786] | Moderate (0.1 mM)
2-(2-ethoxyethoxy)ethyl(2-chloro-1,3-thiazol-4-yl)acetate [compound 5800] | Strong (0.01 mM)
2-(2-phenoxypyridin-4-yl)ethan-1-amine [compound 6625] | Weak (Higher than 0.1 mM)
2-(3-chloro-1,2-thiazol-4-yl)-2,2-difluoroacetic acid [compound 5773] | Moderate (0.1 mM)
2-(4-methylphenyl)-2-oxoethyl(2-chloro-1,3-thiazol-4-yl)acetate [compound 5795] | Moderate (0.1 mM)
2-(6-bromopyridin-3-yl)-2,2-difluoroacetic acid [compound 6620] | Strong (0.01 mM)
2-(6-bromopyrimidin-4-yl)ethan-1-amine [compound 6621] | Strong (0.01 mM)
2-(thiophen-3-yl)ethane-1-thiol [compound 5601] | Moderate (0.1 mM)
2-[2-(2,5-dichlorothiophen-3-yl)ethyl]-1,4,5,6-tetrahydropyrimidin-5-ol [compound 5777] | Weak (Higher than 0.1 mM)
2-[2-(4-chloro-2-fluorophenyl)-1,3-thiazol-4-yl]-2,2-difluoroacetic acid [compound 5734] | Moderate (0.1 mM)
2-amino-2-(2,5-dichlorothiophen-3-yl)acetic acid [compound 5659] | Weak (Higher than 0.1 mM)
2-amino-3-(1H-1,2,4-triazol-1-yl)propanoic acid dihydrochloride [compound 5633, 2-amino-3-(1H-1,2,4-triazol-1-yl)propanoic acid dihydrochloride [HCl]] | Strong (0.01 mM)
2-bromo-6-phenoxypyridine [compound 6645] | Strong (0.01 mM)
2-bromo-N-[(2,5-dichlorothiophen-3-yl)methyl]pyridine-4-carboxamide [compound 5614] | Moderate (0.1 mM)
